ChEMBL document CHEMBL4152365, “Discovery of DS-6930, a potent selective PPARγ modulator. Part I: Lead identification” (Bioorg Med Chem, 2018)
In brackets after ≈: the same amount, converted by molar mass.

Test system: not listed separately
Experiment: Metabolic stability in human liver microsomes after 0.5 hrs
Assay type: ADME, microsome
Settings: read-out: Stability

Compound | remaining at 0.5 h
Cn1c(COc2cccc(C(=O)O)c2)nc2ccc(Oc3ccc4c(c3)OCC4)cc21 | 62%
Cc1ccc(Oc2ccc3nc(COc4cccc(C(=O)O)c4)n(C)c3c2)cc1F | 91%

Test system: not listed separately
Experiment: 1-octanol/PBS distribution co-efficient, log D of the compound at […] at pH 7.4 after 30 mins by HPLC-MS/MS analysis
Assay type: physicochemical
Settings: not given

Compound | logD at 0.5 h
Cn1c(COc2cccc(C(=O)O)c2)nc2ccc(Oc3ccc4c(c3)OCC4)cc21 | 2
Cc1ccc(Oc2ccc3nc(COc4cccc(C(=O)O)c4)n(C)c3c2)cc1F | 2.7

Test system: not listed separately
Experiment: Clearance in cynomolgus monkey at 1 mg/kg, iv by LC-MS/MS analysis
Assay type: ADME, organism-based, Macaca fascicularis
Settings: in vivo

Compound | clearance
Cc1ccc(Oc2ccc3nc(COc4cccc(C(=O)O)c4)n(C)c3c2)cc1F | 0.108 L/h/kg

Target: T1, Peroxisome proliferator-activated receptor gamma (Homo sapiens, UniProt P37231)
T1 sequence (P37231 whole entry): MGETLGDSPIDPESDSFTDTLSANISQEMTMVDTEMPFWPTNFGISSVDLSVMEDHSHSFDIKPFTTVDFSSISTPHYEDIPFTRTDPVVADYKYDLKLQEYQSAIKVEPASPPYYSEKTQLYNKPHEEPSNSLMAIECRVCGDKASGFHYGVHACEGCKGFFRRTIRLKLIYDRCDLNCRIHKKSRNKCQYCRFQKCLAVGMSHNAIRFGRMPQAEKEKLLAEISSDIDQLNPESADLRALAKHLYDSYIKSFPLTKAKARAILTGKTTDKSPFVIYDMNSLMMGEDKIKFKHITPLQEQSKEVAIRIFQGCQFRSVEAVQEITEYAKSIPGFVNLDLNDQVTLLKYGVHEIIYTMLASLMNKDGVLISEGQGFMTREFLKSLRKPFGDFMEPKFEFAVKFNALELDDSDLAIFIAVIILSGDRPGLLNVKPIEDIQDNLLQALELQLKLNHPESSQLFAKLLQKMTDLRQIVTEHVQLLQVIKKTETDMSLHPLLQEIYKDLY
Experiment: Agonist activity at recombinant human GAL4-DBD fused PPARgamma LBD expressed in COS7 cells after 24 hrs by luciferase reporter gene assay
Assay type: cell-based
Settings: not given

Compound | EC50
Cn1c(COc2cccc(C(=O)O)c2)nc2ccc(Oc3ccc4c(c3)OCC4)cc21 | 0.021 µM
Cc1ccc(Oc2ccc3nc(COc4cccc(C(=O)O)c4)n(C)c3c2)cc1F | 0.0044 µM

Test system: not listed separately
Experiment: Plasma concentration in hyperglycemic KK/Ta mouse at 30 mg/kg/day, po administered through diet for 3 days measured on day 3 post last dose
Assay type: ADME, organism-based
Settings: not given

Compound | concentration at 72 h
Cn1c(COc2cccc(C(=O)O)c2)nc2ccc(Oc3ccc4c(c3)OCC4)cc21 | 0.36 µg/mL
Cc1ccc(Oc2ccc3nc(COc4cccc(C(=O)O)c4)n(C)c3c2)cc1F | 0.47 µg/mL

Test system: not listed separately
Experiment: Half life in cynomolgus monkey at 3 mg/kg, po by LC-MS/MS analysis
Assay type: ADME, organism-based, Macaca fascicularis
Settings: in vivo

Compound | half-life
Cc1ccc(Oc2ccc3nc(COc4cccc(C(=O)O)c4)n(C)c3c2)cc1F | 13.8 h

Test system: Mus musculus
Experiment: Glucose-lowering effect in hyperglycemic KK/Ta mouse assessed as reduction in plasma glucose level at 30 mg/kg/day, po administered through diet for 3 days relative to control
Assay type: functional
Design: scale not given: the % may be the effect or the level left
Settings: not given

Compound | Activity
Cn1c(COc2cccc(C(=O)O)c2)nc2ccc(Oc3ccc4c(c3)OCC4)cc21 | 41.6%
Cc1ccc(Oc2ccc3nc(COc4cccc(C(=O)O)c4)n(C)c3c2)cc1F | 56.8%

Test system: Rattus norvegicus
Experiment: Toxicity in Zucker diabetic fatty rat assessed as body weight gain at 3 mg/kg, po administered once daily for 14 days relative to control
Assay type: organism-based
Settings: in vivo, 336 h

Compound | Activity
Cn1c(COc2cccc(C(=O)O)c2)nc2ccc(Oc3ccc4c(c3)OCC4)cc21 | 15.6%
Cc1ccc(Oc2ccc3nc(COc4cccc(C(=O)O)c4)n(C)c3c2)cc1F | 13.8%

Test system: not listed separately
Experiment: Metabolic stability in cynomolgus monkey liver microsomes after 0.5 hrs
Assay type: ADME, Macaca fascicularis, microsome
Settings: read-out: Stability

Compound | remaining at 0.5 h
Cc1ccc(Oc2ccc3nc(COc4cccc(C(=O)O)c4)n(C)c3c2)cc1F | 91%

Test system: not listed separately
Experiment: Cmax in cynomolgus monkey at 3 mg/kg, po by LC-MS/MS analysis
Assay type: ADME, organism-based, Macaca fascicularis
Design: dose 3 mg/kg, route oral
Settings: in vivo

Compound | Cmax
Cc1ccc(Oc2ccc3nc(COc4cccc(C(=O)O)c4)n(C)c3c2)cc1F | 2.06 µg/mL

Test system: not listed separately
Experiment: Oral bioavailability in cynomolgus monkey at 3 mg/kg by LC-MS/MS analysis
Assay type: ADME, organism-based, Macaca fascicularis
Settings: in vivo

Compound | bioavailability
Cc1ccc(Oc2ccc3nc(COc4cccc(C(=O)O)c4)n(C)c3c2)cc1F | 28%

Test system: not listed separately
Experiment: AUC (0 to 24 hrs) in Zucker diabetic fatty rat at 3 mg/kg, po dosed once daily for 14 days and followed by additional administeration on day 15
Assay type: ADME, organism-based
Design: dose 3 mg/kg, time < 24 hr, route oral
Settings: in vivo

Compound | AUC at 24 h
Cn1c(COc2cccc(C(=O)O)c2)nc2ccc(Oc3ccc4c(c3)OCC4)cc21 | 0.85 µg·h/mL
Cc1ccc(Oc2ccc3nc(COc4cccc(C(=O)O)c4)n(C)c3c2)cc1F | 5.53 µg·h/mL

Test system: not listed separately
Experiment: Tmax in Zucker diabetic fatty rat at 3 mg/kg, po dosed once daily for 14 days and followed by additional administeration on day 15
Assay type: ADME, organism-based
Settings: in vivo

Compound | Tmax
Cn1c(COc2cccc(C(=O)O)c2)nc2ccc(Oc3ccc4c(c3)OCC4)cc21 | 3.2 h
Cc1ccc(Oc2ccc3nc(COc4cccc(C(=O)O)c4)n(C)c3c2)cc1F | 2 h

Target: T2, Peroxisome proliferator-activated receptor gamma (Homo sapiens) (UniProt P37231)
T2 sequence (whole entry): T1 sequence (P37231 whole entry)
Experiment: Agonist activity at recombinant human GAL4-DBD fused PPARgamma LBD expressed in COS7 cells at 10 uM after 24 hrs by luciferase reporter gene assay relative to rosiglitazone
Assay type: cell-based
Settings: not given

Compound | Emax
Cn1c(COc2cccc(C(=O)O)c2)nc2ccc(Oc3ccc4c(c3)OCC4)cc21 | 95%
Cc1ccc(Oc2ccc3nc(COc4cccc(C(=O)O)c4)n(C)c3c2)cc1F | 80%

Test system: Mus musculus
Experiment: Toxicity in hyperglycemic KK/Ta mouse assessed as body weight gain at 30 mg/kg/day, po administered through diet for 3 days relative to control
Assay type: organism-based
Settings: in vivo, 72 h

Compound | Activity
Cn1c(COc2cccc(C(=O)O)c2)nc2ccc(Oc3ccc4c(c3)OCC4)cc21 | 4.8%
Cc1ccc(Oc2ccc3nc(COc4cccc(C(=O)O)c4)n(C)c3c2)cc1F | 4.2%

Test system: not listed separately
Experiment: Cmax in Zucker diabetic fatty rat at 3 mg/kg, po dosed once daily for 14 days and followed by additional administeration on day 15
Assay type: ADME, organism-based
Design: dose 3 mg/kg, route oral
Settings: in vivo

Compound | Cmax
Cn1c(COc2cccc(C(=O)O)c2)nc2ccc(Oc3ccc4c(c3)OCC4)cc21 | 0.08 µg/mL
Cc1ccc(Oc2ccc3nc(COc4cccc(C(=O)O)c4)n(C)c3c2)cc1F | 0.79 µg/mL

Test system: not listed separately
Experiment: Metabolic stability in rat liver microsomes after 0.5 hrs
Assay type: ADME, microsome
Settings: read-out: Stability

Compound | remaining at 0.5 h
Cn1c(COc2cccc(C(=O)O)c2)nc2ccc(Oc3ccc4c(c3)OCC4)cc21 | 79%
Cc1ccc(Oc2ccc3nc(COc4cccc(C(=O)O)c4)n(C)c3c2)cc1F | 100%

Test system: not listed separately
Experiment: Tmax in cynomolgus monkey at 3 mg/kg, po by LC-MS/MS analysis
Assay type: ADME, organism-based, Macaca fascicularis
Settings: in vivo

Compound | Tmax
Cc1ccc(Oc2ccc3nc(COc4cccc(C(=O)O)c4)n(C)c3c2)cc1F | 1.5 h

Test system: not listed separately
Experiment: Aqueous thermodynamic solubility of the compound in pH 6.8 solution up to 4 hrs by HPLC-UV analysis
Assay type: physicochemical
Settings: read-out: Therm_solubility

Compound | solubility thermodynamic at 4 h
Cn1c(COc2cccc(C(=O)O)c2)nc2ccc(Oc3ccc4c(c3)OCC4)cc21 | 0.016 mg/mL (≈ 38.4 µM)
Cc1ccc(Oc2ccc3nc(COc4cccc(C(=O)O)c4)n(C)c3c2)cc1F | 0.0044 mg/mL (≈ 10.8 µM)

Test system: not listed separately
Experiment: Volume of distribution at steady state in cynomolgus monkey at 1 mg/kg, iv by LC-MS/MS analysis
Assay type: ADME, organism-based, Macaca fascicularis
Settings: in vivo, read-out: Vdss

Compound | Vd
Cc1ccc(Oc2ccc3nc(COc4cccc(C(=O)O)c4)n(C)c3c2)cc1F | 0.32 L/kg

Test system: Rattus norvegicus
Experiment: Glucose-lowering effect in Zucker diabetic fatty rat assessed as reduction in plasma glucose level at 3 mg/kg, po administered once daily for 14 days measured on day 14 post last dose relative to control
Assay type: functional
Design: scale not given: the % may be the effect or the level left
Settings: not given

Compound | Activity
Cn1c(COc2cccc(C(=O)O)c2)nc2ccc(Oc3ccc4c(c3)OCC4)cc21 | 69.7%
Cc1ccc(Oc2ccc3nc(COc4cccc(C(=O)O)c4)n(C)c3c2)cc1F | 59.3%

Test system: not listed separately
Experiment: AUClast in cynomolgus monkey at 3 mg/kg, po by LC-MS/MS analysis
Assay type: ADME, organism-based, Macaca fascicularis
Design: dose 3 mg/kg, route oral, time 0 - last
Settings: in vivo

Compound | AUC(0-t)
Cc1ccc(Oc2ccc3nc(COc4cccc(C(=O)O)c4)n(C)c3c2)cc1F | 8.44 µg·h/mL

Target: T3, Peroxisome proliferator-activated receptor alpha (Homo sapiens) (UniProt Q07869)
T3 sequence (whole entry): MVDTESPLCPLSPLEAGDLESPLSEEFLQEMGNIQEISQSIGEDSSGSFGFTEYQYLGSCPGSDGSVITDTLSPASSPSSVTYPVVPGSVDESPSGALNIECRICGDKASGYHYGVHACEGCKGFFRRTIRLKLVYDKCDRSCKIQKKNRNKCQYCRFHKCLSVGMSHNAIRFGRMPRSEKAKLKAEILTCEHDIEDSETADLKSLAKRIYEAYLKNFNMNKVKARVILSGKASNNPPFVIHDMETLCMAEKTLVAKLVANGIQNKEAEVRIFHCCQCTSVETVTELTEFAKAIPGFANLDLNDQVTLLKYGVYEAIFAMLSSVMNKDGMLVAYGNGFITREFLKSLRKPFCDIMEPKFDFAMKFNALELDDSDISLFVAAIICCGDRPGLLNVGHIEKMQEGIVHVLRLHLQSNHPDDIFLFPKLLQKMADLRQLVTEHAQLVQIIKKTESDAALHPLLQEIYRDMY
Experiment: Agonist activity at recombinant human GAL4-DBD fused PPARalpha LBD expressed in COS7 cells at 10 uM after 24 hrs by luciferase reporter gene assay relative to 2-(4-tert-Butylphenoxy)-3-[4-[2-[(4-pyridin-2-ylbenzoyl)amino]ethoxy]
Assay type: cell-based
Settings: not given

Compound | Emax
Cn1c(COc2cccc(C(=O)O)c2)nc2ccc(Oc3ccc4c(c3)OCC4)cc21 | 12%
Cc1ccc(Oc2ccc3nc(COc4cccc(C(=O)O)c4)n(C)c3c2)cc1F | 40%

Target: T4, Peroxisome proliferator-activated receptor alpha (Homo sapiens, UniProt Q07869)
T4 sequence (Q07869 whole entry): T3 sequence (whole entry)
Experiment: Agonist activity at recombinant human GAL4-DBD fused PPARalpha LBD expressed in COS7 cells after 24 hrs by luciferase reporter gene assay
Assay type: cell-based
Settings: not given

Compound | EC50
Cn1c(COc2cccc(C(=O)O)c2)nc2ccc(Oc3ccc4c(c3)OCC4)cc21 | > 10 µM
Cc1ccc(Oc2ccc3nc(COc4cccc(C(=O)O)c4)n(C)c3c2)cc1F | > 10 µM
